Activity calls are given as the source filed them. No rule for the calls is given here.

Data on twelve compounds can be found in PubChem BioAssay AID1259407 (Chemical Carcinogenesis Research Information System (CCRIS), 2018).

The series deals with CCRIS mutagenicity, Ames/micronucleus/aberration tests. The series can be described thus: CCRIS mutagenicity studies.
[1] abbreviates: Test System: AMES SALMONELLA TYPHIMURIUM, Strain/Indicator: TA98, Metabolic Activation: NONE, Method: PREINCUBATION
Where [2] appears, read: Test System: AMES SALMONELLA TYPHIMURIUM, Strain/Indicator: TA98, Metabolic Activation: RAT, LIVER, S-9, AROCLOR 1254, Method: PREINCUBATION
The mark [3] stands for this setting: Test System: AMES SALMONELLA TYPHIMURIUM, Strain/Indicator: TA100, Metabolic Activation: NONE, Method: PREINCUBATION
The mark [4] stands for this setting: Test System: AMES SALMONELLA TYPHIMURIUM, Strain/Indicator: TA100, Metabolic Activation: RAT, LIVER, S-9, AROCLOR 1254, Method: PREINCUBATION
[5] abbreviates: Test System: AMES SALMONELLA TYPHIMURIUM, Strain/Indicator: TA1535, Metabolic Activation: NONE, Method: PREINCUBATION
Where [6] appears, read: Test System: AMES SALMONELLA TYPHIMURIUM, Strain/Indicator: TA1537, Metabolic Activation: NONE, Method: PREINCUBATION
Setting [7] is: Test System: AMES SALMONELLA TYPHIMURIUM, Strain/Indicator: TA98, Metabolic Activation: NONE, Method: STANDARD PLATE.
The mark [8] stands for this setting: Test System: AMES SALMONELLA TYPHIMURIUM, Strain/Indicator: TA98, Metabolic Activation: RAT, LIVER, S-9, AROCLOR 1254, Method: STANDARD PLATE.
The mark [9] stands for this setting: Test System: AMES SALMONELLA TYPHIMURIUM, Strain/Indicator: TA100, Metabolic Activation: NONE, Method: STANDARD PLATE.
[10] abbreviates: Test System: AMES SALMONELLA TYPHIMURIUM, Strain/Indicator: TA100, Metabolic Activation: RAT, LIVER, S-9, AROCLOR 1254, Method: STANDARD PLATE.

With `O=C1CCCCC1`, the mutagenic call is “inactive; negative” (Test System: AMES SALMONELLA TYPHIMURIUM, Strain/Indicator: TA98, Metabolic Activation: HAMSTER, LIVER, S-9, AROCLOR 1254, Method: PREINCUBATION); “inactive; negative” under setting [1]; “inactive; negative” under setting [2]; “inactive; negative” (Test System: AMES SALMONELLA TYPHIMURIUM, Strain/Indicator: TA100, Metabolic Activation: HAMSTER, LIVER, S-9, AROCLOR 1254, Method: PREINCUBATION); “inactive; negative” under setting [3]; “inactive; negative” under setting [4]. The mutagenic call by setting is: (Test System: AMES SALMONELLA TYPHIMURIUM, Strain/Indicator: TA1535, Metabolic Activation: HAMSTER, LIVER, S-9, AROCLOR 1254, Method: PREINCUBATION) “inactive; negative”; under setting [5], “inactive; negative”; (Test System: AMES SALMONELLA TYPHIMURIUM, Strain/Indicator: TA1535, Metabolic Activation: RAT, LIVER, S-9, AROCLOR 1254, Method: PREINCUBATION) “inactive; negative”; (Test System: AMES SALMONELLA TYPHIMURIUM, Strain/Indicator: TA1537, Metabolic Activation: HAMSTER, LIVER, S-9, AROCLOR 1254, Method: PREINCUBATION) “inactive; negative”; under setting [6], “inactive; negative”; (Test System: AMES SALMONELLA TYPHIMURIUM, Strain/Indicator: TA1537, Metabolic Activation: RAT, LIVER, S-9, AROCLOR 1254, Method: PREINCUBATION) “inactive; negative”. Moreover, the mutagenic call was “inactive; negative” (Test System: Mouse lymphoma, Strain/Indicator: L5178Y (tk+/tk-), Metabolic Activation: None, Method: Suspension/plate) and “active; positive” (Test System: Mouse lymphoma, Strain/Indicator: L5178Y (tk+/tk-), Metabolic Activation: Rat, Liver, S-9, Aroclor 1254, Method: Suspension/plate).

Regarding `CCCc1cc2ccccc2c2ccc3c(c12)C1OC1C(O)C3O` (stereo unspecified), the mutagenic call under setting [3] is “inactive; negative”.

Take `O=P(O)(O)OP(=O)(O)OP(=O)(O)O`: the mutagenic call is “inactive; negative” under setting [1]; “inactive; negative” (Test System: AMES SALMONELLA TYPHIMURIUM, Strain/Indicator: TA98, Metabolic Activation: RAT, LIVER, S-9, KC 500, Method: PREINCUBATION); “inactive; negative” under setting [3]; “inactive; negative” (Test System: AMES SALMONELLA TYPHIMURIUM, Strain/Indicator: TA100, Metabolic Activation: RAT, LIVER, S-9, KC 500, Method: PREINCUBATION); “inactive; negative” under setting [5]; “inactive; negative” (Test System: AMES SALMONELLA TYPHIMURIUM, Strain/Indicator: TA1535, Metabolic Activation: RAT, LIVER, S-9, KC 500, Method: PREINCUBATION). Besides, the mutagenic call is, setting by setting: under setting [6], “inactive; negative”; (Test System: AMES SALMONELLA TYPHIMURIUM, Strain/Indicator: TA1537, Metabolic Activation: RAT, LIVER, S-9, KC 500, Method: PREINCUBATION) “inactive; negative”; (Test System: AMES SALMONELLA TYPHIMURIUM, Strain/Indicator: TA1538, Metabolic Activation: NONE, Method: PREINCUBATION) “inactive; negative”; (Test System: AMES SALMONELLA TYPHIMURIUM, Strain/Indicator: TA1538, Metabolic Activation: RAT, LIVER, S-9, KC 500, Method: PREINCUBATION) “inactive; negative”; (Test System: E. COLI, Strain/Indicator: WP2 UVRA, Metabolic Activation: NONE, Method: PREINCUBATION) “inactive; negative”; (Test System: E. COLI, Strain/Indicator: WP2 UVRA, Metabolic Activation: RAT, LIVER, S-9, KC 500, Method: PREINCUBATION) “inactive; negative”.

For `c1ccc2nc3c4ccccc4c4ccccc4c3cc2c1`, for the setting “Test System: AMES SALMONELLA TYPHIMURIUM, Strain/Indicator: TA100, Metabolic Activation: RAT, LIVER, S-9, PHENOBARBITAL AND 5,6-BENZOFLAVONE, Method: STANDARD PLATE”, the mutagenic call is “active; positive”.

Consider `O=Nc1ccc2ccc3c4c(cc5ccc1c2c53)CCCC4`, for which the mutagenic call under setting [7] is “active; positive”.

For the compound `CC(=O)Nc1ccccc1C`, the mutagenic call runs as follows: under setting [7], “inactive; negative”; under setting [8], “inactive; negative”; under setting [9], “inactive; negative”; under setting [10], “inactive; negative”.

On to `Cc1ccc([N+](=O)[O-])cc1N=O`, for which the mutagenic call is, setting by setting: under setting [1], “active; positive”; (Test System: AMES SALMONELLA TYPHIMURIUM, Strain/Indicator: TA98, Metabolic Activation: NONE, Method: SUSPENSION/PLATE) “inactive; negative”; (Test System: AMES SALMONELLA TYPHIMURIUM, Strain/Indicator: TA98, Metabolic Activation: RAT, LIVER, S-9, AROCLOR, Method: PREINCUBATION) “active; positive”; (Test System: AMES SALMONELLA TYPHIMURIUM, Strain/Indicator: TA98, Metabolic Activation: RAT, LIVER, S-9, PHENOBARBITAL AND 5,6-BENZOFLAVONE, Method: SUSPENSION/PLATE) “inactive; negative”; (Test System: AMES SALMONELLA TYPHIMURIUM, Strain/Indicator: TA100, Metabolic Activation: NONE, Method: SUSPENSION/PLATE) “inactive; negative”; (Test System: AMES SALMONELLA TYPHIMURIUM, Strain/Indicator: TA100, Metabolic Activation: RAT, LIVER, S-9, PHENOBARBITAL AND 5,6-BENZOFLAVONE, Method: SUSPENSION/PLATE) “inactive; negative”.

For the compound `CC(=O)OC(C(C)=O)N(C)N=O` (stereo unspecified), the mutagenic call under setting [5] is “active; positive”.

With `CC1=NCCc2c1[nH]c1cc(O)ccc21`, the mutagenic call runs as follows: (Test System: AMES SALMONELLA TYPHIMURIUM, Strain/Indicator: TA97, Metabolic Activation: NONE, Method: PREINCUBATION) “inactive; negative”; (Test System: AMES SALMONELLA TYPHIMURIUM, Strain/Indicator: TA97, Metabolic Activation: RAT, LIVER, S-9, AROCLOR 1254, Method: PREINCUBATION) “inactive; negative”; under setting [1], “inactive; negative”; under setting [2], “inactive; negative”; under setting [3], “inactive; negative”; under setting [4], “inactive; negative”. The mutagenic call reads like this: (Test System: AMES SALMONELLA TYPHIMURIUM, Strain/Indicator: TA102, Metabolic Activation: NONE, Method: PREINCUBATION) “inactive; negative”; (Test System: AMES SALMONELLA TYPHIMURIUM, Strain/Indicator: TA102, Metabolic Activation: RAT, LIVER, S-9, AROCLOR 1254, Method: PREINCUBATION) “inactive; negative”.

On to `ClCc1cccc2cc3ccc4cccc5ccc(c12)c3c45`, for which the mutagenic call reads like this: under setting [7], “active; positive”; under setting [9], “active; positive”.

Take `Nc1cc([N+](=O)[O-])cc([N+](=O)[O-])c1C(=O)O`: the mutagenic call is “inactive; negative” (End Point: In vitro chromosomal aberrations, Test System: V79 Chinese hamster fibroblasts, Metabolic Activation: None); “active; positive” (End Point: In vitro micronucleus, Test System: HepG2 human hepatoma cells, Metabolic Activation: None); “active; positive” (Test System: Ames Salmonella typhimurium, Strain/Indicator: TA98, Metabolic Activation: None, Method: Standard plate); “active; positive” (Test System: Ames Salmonella typhimurium, Strain/Indicator: TA98, Metabolic Activation: Rat, Liver, S-9, Method: Standard plate); “active; positive” (Test System: Ames Salmonella typhimurium, Strain/Indicator: TA98NR, Metabolic Activation: None, Method: Standard plate); “inactive; negative” (Test System: Ames Salmonella typhimurium, Strain/Indicator: TA100, Metabolic Activation: None, Method: Standard plate). Also, the mutagenic call (Test System: Ames Salmonella typhimurium, Strain/Indicator: TA100, Metabolic Activation: Rat, Liver, S-9, Method: Standard plate) is “inactive; negative”.

As for `CNC(=O)N(C)c1nc2ccccc2s1`, the mutagenic call is “inactive; negative” under setting [7], “inactive; negative” under setting [8], “inactive; negative” under setting [9] and “inactive; negative” under setting [10].
